The values below come from patent US9440941B2, “Substituted chroman-6-yloxy-cycloalkanes and their use as pharmaceuticals” (SANOFI, priority 2013, dated 2016).

Where a name gives a salt, the structure may show the parent alone. Read-outs that look alike come from different tables or passages of the source.

The target in the assay is T1, human NCX1 (Homo sapiens, UniProt P32418).
T1 construct: expressed in transfected cells
Put plainly: Inhibition of Ca2+ influx into cells (NCX1 reverse mode), FLIPR Fluo-4 assay. The format is cell-based. As to conditions: for IC50: inhibition of NCX1 in reverse mode (Ca2+ influx into cells), read-out: NCX1rv IC50; for inhibition at 10 µM: NCX1 reverse mode, IC50 value not determined. The source says: The sodium/calcium exchanger NCX1 can transport calcium ions and sodium ions through the cell membrane. The transport is an exchange of Ca^2+ and Na^+ in two directions depending on membrane potential and ion gradients. At the first direction, named “forward mode” or “calcium export mode”, Ca^2+ is transported out of the cell and Na^+ is transported into the cell. At the other direction, named “reverse mode” or “calcium import mode”, the transport directions are vice versa. The effect of the compounds of the invention on NCX1 was determined in CHO cells stably expressing human NCX1 (gene symbol SLC8A1; cf. WO 2009/115238). The assay is based on the monitoring of intracellular Ca^2+ concentrations using a calcium-sensitive fluorescence dye which is detected by means of a FLIPR device (Fluorimetric Imaging Plate Reader, Molecular Devices).
Assay Technology—Reverse Mode
The assay is based on the monitoring of intracellular Ca^2+ concentrations using the calcium-sensitive dye Fluo-4. CHO cells expressing NCX1 were loaded with the dye by means of the acetoxymethyl ester Fluo-4 AM (Invitrogen, F14202), which is cleaved intracellularly by esterase activity to yield the charged species of free Fluo-4. After an preincubation period with the test compound, Gramicidine (Sigma, G5002) was added. Gramicidine is an ionophor for Na^+ ions mediating an increase of intracellular Na^+ ions. Consequently, intracellular Na^+ ions are exchanged against extracellular Ca^2+ ions (Ca^2+ influx, reverse mode). The intracellular elevation of Ca^2+ ions was detected by measuring the fluorescence of Fluo-4 at a wavelength of 520 nm by a FLIPR device.
Briefly, for the reverse mode transport assay 18000 cells per well were seeded into a 96 well microplate (Corning COSTAR 3904) and incubated overnight in culture medium (1× Nut Mix F12 (Ham) (Gibco, 21765-029); 10% (v/v) fetal calf serum (PAA Gold, A15-649); 450 μg/ml Geneticin (Gibco, 10131-027)). A total volume of 100 μl medium per well was used. For the preparation of the FLIPR assay, the culture medium was removed from the plates and 100 μl of dye solution (2 μM Fluo-4 AM; 0.02% (v/v) Pluronic F-127 (20%, Invitrogen, P3000MP); 0.1% (v/v) bovine albumin solution (30% (v/v), Sigma, A9205) in assay buffer (133.8 mM NaCl (Sigma, S5886); 4.7 mM KCl (Sigma, P3911); 1.25 mM MgCl2 (Merck, 1.05833.0250); 3.5 mM CaCl2 (Merck, 1.02083.0250); 5 mM glucose (Sigma, G7021); 10 mM Hepes (Sigma, H4034); 0.01% (v/v) Pluronic F-127 (5%, Sigma, P2443); 2.5 mM Probenecid (Maybridge, SB00915EB); pH 7.4)) were added into each well. The plates were incubated in the dark at room temperature for 80 min. After the incubation period, the dye solution was removed and the wells were washed with 100 μl of assay buffer. Then 80 μl of a solution of the test compound in assay buffer in different concentrations were added into the wells. The plates were incubated at 16° C. for 45 min. Meanwhile a 60 μM solution of Gramicidine in assay buffer (4° C.) was prepared and stored in the wells of a 96 well microplate (96 well microplate, polypropylene, U-shape (Greiner Bio-One, 650201)) at 4° C. until measurement was started. The fluorescence monitoring was performed at 240 measuring points with measurement intervals of 2 sec. After the fifth measuring point, 40 μl of the Gramicidine solution were added to each well of the assay plates to give a final Gramicidine concentration of 20 μM. For the determination of the IC50 values the minimal fluorescence value was subtracted from the maximal fluorescence value for all measuring points. The calculation of the IC50 values via the percentage inhibitions of Ca^2+ influx into cells (reverse mode) effected by the test compound was performed in Biost@t Speed 2.0.

Where [1] appears, read: read-out: Inhibition in % at 10 μM (NCX1rv).

As for `O=C(CC1CC1)N[C@H]1CC[C@H](Oc2ccc3c(c2)CCC(c2ccccc2)O3)CC1` (relative stereo) [compound 27], the IC50 worked out at 200 nM.
On to `Cc1ccccc1C1CCc2cc(OC3CCC(NC4CCS(=O)(=O)C4)CC3)ccc2O1` (centres unmarked) [compound 206], for which the IC50 was 1100 nM.
On the same count and under the same terms, next, `N[C@H]1C[C@@H](Oc2ccc3c(c2)CCC(c2ccccc2)O3)C1` (relative stereo) [compound 306, hydrochloride]: 1600 nM.
As to `Cc1ccccc1C1CCc2cc(OC3CCC(NCCSC(C)C)CC3)ccc2O1` (centres unmarked) [compound 194], the inhibition at 10 µM under setting [1] worked out at 85%.
Take `CCC(C)(O)C(=O)N[C@H]1CC[C@H](Oc2ccc3c(c2)CCC(c2ccccc2F)O3)CC1` (relative stereo) [compound 238]: the IC50 was 100 nM.
For the compound “N-(2-tert-Butoxyethyl)-4-(2-phenylchroman-6-yloxy)-cyclohexylamine [compound 135]”, the IC50 is 800 nM.
Same read-out and setting: next, `O=C(OC1CCC(Oc2ccc3c(c2)CCC(c2ccccc2)O3)CC1)c1ccncc1F` (centres unmarked) [compound 89, 3-Fluoro-isonicotinic acid 4-(2-phenyl-chroman-6-yloxy)-cyclohexyl ester]: 400 nM; `Cc1nn(C)c(C)c1CCC(=O)N[C@H]1CC[C@H](Oc2ccc3c(c2)CCC(c2ccccc2)O3)CC1` (relative stereo) [compound 36]: 300 nM; `COC[C@H](C)NC1CCC(Oc2ccc3c(c2)CCC(c2ccccc2C)O3)CC1` (some centres unmarked) [compound 207]: 1500 nM.
For the compound `COc1cccc(C2CCc3cc(OC4CCC(C(=O)NCc5ccno5)CC4)ccc3O2)c1F` (centres unmarked) [compound 295], the IC50 was 1100 nM.
For the compound `COCCCNC1CCC(Oc2ccc3c(c2)CCC(c2ccccc2C)O3)CC1` (centres unmarked) [compound 193], the inhibition at 10 µM (read-out: NCX1rv inhibition in % at 10 μM) amounted to 99%.
With `Cc1c(F)cccc1C1CCc2cc(OC3CCC(C(=O)NCc4ccno4)CC3)ccc2O1` (centres unmarked) [compound 263], the IC50 was found to be 100 nM.
Same read-out and setting: to `O=C(N[C@H]1CC[C@H](Oc2ccc3c(c2)CCC(c2ccccc2F)O3)CC1)C1CC1(F)F` (relative stereo) [compound 251] belongs 5000 nM.
For `O=C(N[C@H]1CC[C@H](Oc2ccc3c(c2)CCC(c2ccccc2)O3)CC1)C1CC1` (relative stereo) [compound 26], the IC50 was determined as 100 nM.
On to `Cc1nc(C(=O)N[C@H]2CC[C@H](Oc3ccc4c(c3)CCC(c3ccccc3)O4)CC2)cs1` (relative stereo) [compound 29], for which the IC50 came to 300 nM.
For the compound `O=C(CCn1cccn1)N[C@H]1CC[C@H](Oc2ccc3c(c2)CCC(c2ccccc2F)O3)CC1` (single isomer, unassigned) [compound 179], the IC50 stood at 1200 nM.
For `CCC(C)CN[C@H]1CC[C@H](Oc2ccc3c(c2)CCC(c2ccccc2)O3)CC1` (stereo partly drawn) [compound 70, N-(2-methylbutyl)-[trans-4-(2-phenylchroman-6-yloxy)]-cyclohexylamine], the IC50 amounted to 500 nM.
On to `COC(=O)CNC(=O)C1CCC(Oc2ccc3c(c2)CCC(c2ccccc2)O3)CC1` (single isomer, unassigned; stereoisomer 2) [compound 92, Methyl 2-[[cis-4-[2-phenylchroman-6-yloxy]cyclohexanecarbonyl]amino]acetate,stereoisomer 2 (2)], for which the IC50 stood at 100 nM.
Consider `Cc1ccccc1C1CCc2cc(OC3CCC(C(=O)NC(CO)CO)CC3)ccc2O1` (centres unmarked) [compound 264], for which the IC50 is 200 nM.
With `CCC(C)(O)C(=O)N[C@H]1CC[C@H](Oc2ccc3c(c2)CCC(c2ccccc2)O3)CC1` (relative stereo) [compound 44], the IC50 is 300 nM.
As for `Cc1ccccc1C1CCc2cc(OC3CCC(NCCN4CCSCC4)CC3)ccc2O1` (centres unmarked) [compound 209], the IC50 was found to be 3200 nM.
On the same count and under the same terms, next, “N-(3-Methylbutyl)-4-(2-phenylchroman-6-yloxy)-cyclohexylamine [compound 130]”: 800 nM.
For `c1ccc(C2CCc3cc(O[C@H]4CC[C@H](NCc5ccsc5)CC4)ccc3O2)cc1` (relative stereo) [compound 50], the IC50 stood at 600 nM.
Regarding `CCCNC1CCC(Oc2ccc3c(c2)CCC(c2ccccc2C)O3)CC1` (centres unmarked) [compound 205], the IC50 came out at 1500 nM.
The same measure, in the same setting: next, `Cc1ccccc1C1CCc2cc(O[C@H]3CC[C@H](N(CC4CCOC4)CC4CCOC4)CC3)ccc2O1` (relative stereo) [compound 155, Bis-(tetrahydrofuran-3-ylmethyl)-[trans-4-(2-o-tolyl-chroman-6-yloxy)-cyclohexyl]-amine]: 5300 nM; `C[C@@H](N)C(=O)N[C@H]1CC[C@H](Oc2ccc3c(c2)CCC(c2ccccc2)O3)CC1` (some centres unmarked) [compound 72, hydrochloride]: 300 nM.
Same read-out and setting: next, `COCCC(=O)N[C@H]1CC[C@H](Oc2ccc3c(c2)CCC(c2ccccc2F)O3)CC1` (relative stereo) [compound 243]: 700 nM.
On the same count and under the same terms, to `CSCCNC1CCC(Oc2ccc3c(c2)CCC(c2ccccc2F)O3)CC1` (centres unmarked) [compound 226] belongs 2400 nM.
For the compound `Cc1c(F)cccc1C1CCc2cc(OC3CCC(C(=O)NCC(N)=O)CC3)ccc2O1` (centres unmarked) [compound 272], the IC50 worked out at 400 nM.
The same measure, in the same setting: next, `CC(C)(C)CNC1CCC(Oc2ccc3c(c2)CCC(c2ccccc2)O3)CC1` (centres unmarked) [compound 161, N-(2,2-Dimethylpropyl)-4-(2-phenylchroman-6-yloxy)-cyclohexylamine]: 1300 nM.
Take `O=C(Cn1cccn1)N[C@H]1CC[C@H](Oc2ccc3c(c2)CCC(c2ccccc2)O3)CC1` (relative stereo) [compound 24]: the IC50 stood at 300 nM.
Same read-out and setting: next, `NCC(=O)N[C@H]1CC[C@H](Oc2ccc3c(c2)CC[C@H](c2ccccc2)O3)CC1` [compound 160, hydrochloride]: 1100 nM; `Cc1c(F)cccc1C1CCc2cc(OC3CCC(C(=O)NC4CCCCC4O)CC3)ccc2O1` (single isomer, unassigned) [compound 286]: 500 nM; `CCC(N)C1(CC)CCC(Oc2ccc3c(c2)CCC(c2ccccc2)O3)CC1` (centres unmarked) [compound 11, hydrochloride]: 2800 nM.
Same read-out and setting: to `Fc1ccccc1C1CCc2cc(OC3CCC(NCCCC4CCOC4)CC3)ccc2O1` (centres unmarked) [compound 228] belongs 2200 nM; to `Fc1ccccc1C1CCc2cc(O[C@H]3CC[C@H](NCC4CCOC4)CC3)ccc2O1` (relative stereo) [compound 178], 1600 nM; to `Cn1cc(Cl)c(CN(Cc2nn(C)cc2Cl)[C@H]2CC[C@H](Oc3ccc4c(c3)CCC(c3ccccc3)O4)CC2)n1` (stereo partly drawn) [compound 81, N,N-Bis(4-chloro-1-methyl-pyrazol-3-ylmethyl)-[trans-4-(2-phenylchroman-6-yloxy)]-cyclohexylamine], 4000 nM.
Regarding `Cc1ccnn1CCC(=O)N[C@H]1CC[C@H](Oc2ccc3c(c2)CCC(c2ccccc2F)O3)CC1` (relative stereo) [compound 257], the IC50 was determined as 200 nM.
Same read-out and setting: next, `CCn1nccc1CNC(=O)C1CCC(Oc2ccc3c(c2)CCC(c2cccc(F)c2C)O3)CC1` (centres unmarked) [compound 283]: 600 nM.
Turning to `Cc1ccccc1C1CCc2cc(OC3CCC(NCCCOC4CCCC4)CC3)ccc2O1` (centres unmarked) [compound 199], under setting [1], the inhibition at 10 µM was 71%.
For the compound `c1ccc(C2CCc3cc(O[C@H]4CC[C@H](N(Cc5cncs5)Cc5cncs5)CC4)ccc3O2)cc1` (stereo partly drawn) [compound 83, [trans-4-(2-Phenylchroman-6-yloxy)]-N,N-bis(thiazol-5-ylmethyl)cyclohexylamine], the IC50 was found to be 1400 nM.

For orientation: IC50 means the concentration needed to halve the response being measured. By inhibition is commonly meant how much of the control response was suppressed.
